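Cultured in 96-well plates, cells were exposed to test compound for 48 hours across five concentrations. The concentration for 50% growth inhibition is given as GI50.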 Activity calls are given as the source filed them. Cut-off read from the data, not from the text of the source: active = GI50 up to about 1.1 µM and inactive = higher.
What was measured:
Assay in all cases: DTP human tumour cell line panel, 48 h
SW-620 = tested on: SW-620
TK-10 = tested on: TK-10
NCI-H460 = tested on: NCI-H460
SF-539 = tested on: SF-539
SNB-75 = tested on: SNB-75
NCI-H522 = tested on: NCI-H522
OVCAR-8 = tested on: OVCAR-8
SNB-19 = tested on: SNB-19
SK-OV-3 = tested on: SK-OV-3
786-0 = tested on: 786-0
A498 = tested on: A498
UO-31 = tested on: UO-31
CCRF-CEM = tested on: CCRF-CEM
NCI-H23 = tested on: NCI-H23
UACC-62 = tested on: UACC-62
RPMI-8226 = tested on: RPMI-8226
UACC-257 = tested on: UACC-257
HCC 2998 = tested on: HCC 2998
T47D = tested on: T47D
IGROV-1 = tested on: IGROV-1
Hs-578T = tested on: Hs-578T
Malme-3M = tested on: Malme-3M
DU-145 = tested on: DU-145
HCT-15 = tested on: HCT-15
NCI-H226 = tested on: NCI-H226
MDA-MB-435 = tested on: MDA-MB-435
MDA-MB-231 = tested on: MDA-MB-231
HT-29 = tested on: HT-29
RXF 393 = tested on: RXF 393
HL-60 = tested on: HL-60
SF-268 = tested on: SF-268
COLO 205 = tested on: COLO 205
MDA-N = tested on: MDA-N
SK-MEL-28 = tested on: SK-MEL-28
OVCAR-3 = tested on: OVCAR-3
KM12 = tested on: KM12
SK-MEL-2 = tested on: SK-MEL-2
MCF7 = tested on: MCF7
M14 = tested on: M14
NCI/ADR-RES = tested on: NCI/ADR-RES
U-251 = tested on: U-251
HCT-116 = tested on: HCT-116
OVCAR-4 = tested on: OVCAR-4
PC-3 = tested on: PC-3
LOX IMVI = tested on: LOX IMVI
SF-295 = tested on: SF-295
MOLT-4 = tested on: MOLT-4
HOP-62 = tested on: HOP-62
ACHN = tested on: ACHN
OVCAR-5 = tested on: OVCAR-5
K562 = tested on: K562
SN12C = tested on: SN12C
A549 = tested on: A549
HOP-92 = tested on: HOP-92
SK-MEL-5 = tested on: SK-MEL-5
EKVX = tested on: EKVX
CAKI-1 = tested on: CAKI-1

Compound: CC(=O)OC1CC2CCC1(C)C2(C)C (centres undefined)
- GI50 (SW-620): > 100 µM (inactive)
- GI50 (TK-10): > 100 µM (inactive)
- GI50 (NCI-H460): > 100 µM (inactive)
- GI50 (SF-539): > 100 µM (inactive)
- GI50 (SNB-75): > 100 µM (inactive)
- GI50 (NCI-H522): > 100 µM (inactive)
- GI50 (OVCAR-8): > 100 µM (inactive)
- GI50 (SNB-19): > 100 µM (inactive)
- GI50 (SK-OV-3): > 100 µM (inactive)
- GI50 (786-0): > 100 µM (inactive)
- GI50 (A498): > 100 µM (inactive)
- GI50 (UO-31): > 100 µM (inactive)
- GI50 (CCRF-CEM): > 100 µM (inactive)
- GI50 (NCI-H23): > 100 µM (inactive)
- GI50 (UACC-62): > 100 µM (inactive)
- GI50 (RPMI-8226): > 100 µM (inactive)
- GI50 (UACC-257): > 100 µM (inactive)
- GI50 (HCC 2998): > 100 µM (inactive)
- GI50 (T47D): > 100 µM (inactive)
- GI50 (IGROV-1): > 100 µM (inactive)
- GI50 (Hs-578T): > 100 µM (inactive)
- GI50 (Malme-3M): > 100 µM (inactive)
- GI50 (DU-145): > 100 µM (inactive)
- GI50 (HCT-15): > 100 µM
- GI50 (NCI-H226): > 100 µM (inactive)
- GI50 (MDA-MB-435): > 100 µM (inactive)
- GI50 (MDA-MB-231): > 100 µM (inactive)
- GI50 (HT-29): > 100 µM (inactive)
- GI50 (RXF 393): > 100 µM (inactive)
- GI50 (HL-60): > 100 µM (inactive)
- GI50 (SF-268): > 100 µM (inactive)
- GI50 (COLO 205): > 100 µM (inactive)
- GI50 (MDA-N): > 100 µM (inactive)
- GI50 (SK-MEL-28): > 100 µM (inactive)
- GI50 (OVCAR-3): > 100 µM (inactive)
- GI50 (KM12): > 100 µM (inactive)
- GI50 (SK-MEL-2): > 100 µM (inactive)
- GI50 (MCF7): > 100 µM (inactive)
- GI50 (M14): > 100 µM (inactive)
- GI50 (NCI/ADR-RES): > 100 µM (inactive)
- GI50 (U-251): > 100 µM (inactive)
- GI50 (HCT-116): > 100 µM (inactive)
- GI50 (OVCAR-4): > 100 µM (inactive)
- GI50 (PC-3): > 100 µM (inactive)
- GI50 (LOX IMVI): > 100 µM (inactive)
- GI50 (SF-295): > 100 µM (inactive)
- GI50 (MOLT-4): > 100 µM (inactive)
- GI50 (HOP-62): > 100 µM (inactive)
- GI50 (ACHN): > 100 µM (inactive)
- GI50 (OVCAR-5): > 100 µM (inactive)
- GI50 (K562): > 100 µM (inactive)
- GI50 (SN12C): > 100 µM (inactive)

Compound: N=C(N)N/N=C/c1cc(Cl)cc(Cl)c1O
- GI50 (SW-620): 97.5 µM (inactive)
- GI50 (TK-10): 69 µM (inactive)
- GI50 (NCI-H460): 69.5 µM (inactive)
- GI50 (SF-539): 37.3 µM (inactive)
- GI50 (SNB-75): 30.2 µM (inactive)
- GI50 (NCI-H522): 56.5 µM (inactive)
- GI50 (OVCAR-8): > 100 µM (inactive)
- GI50 (SNB-19): 94.2 µM (inactive)
- GI50 (SK-OV-3): > 100 µM (inactive)
- GI50 (786-0): 76.7 µM (inactive)
- GI50 (A498): 51.1 µM (inactive)
- GI50 (A549): > 100 µM (inactive)
- GI50 (UO-31): 29.7 µM (inactive)
- GI50 (HOP-92): 65 µM (inactive)
- GI50 (CCRF-CEM): 43.4 µM (inactive)
- GI50 (NCI-H23): 56.5 µM (inactive)
- GI50 (UACC-62): 41 µM (inactive)
- GI50 (RPMI-8226): 57.3 µM (inactive)
- GI50 (UACC-257): 45.3 µM (inactive)
- GI50 (HCC 2998): 15.8 µM (inactive)
- GI50 (T47D): 32.2 µM (inactive)
- GI50 (IGROV-1): > 100 µM (inactive)
- GI50 (Hs-578T): 55.7 µM (inactive)
- GI50 (Malme-3M): 42.3 µM (inactive)
- GI50 (DU-145): 75 µM (inactive)
- GI50 (HCT-15): 26.1 µM
- GI50 (NCI-H226): 46.6 µM (inactive)
- GI50 (MDA-MB-435): 53.5 µM (inactive)
- GI50 (MDA-MB-231): 62.7 µM (inactive)
- GI50 (HT-29): 62.1 µM (inactive)
- GI50 (RXF 393): 58.5 µM (inactive)
- GI50 (HL-60): 33.2 µM (inactive)
- GI50 (SF-268): 45.9 µM (inactive)
- GI50 (COLO 205): 34.2 µM (inactive)
- GI50 (MDA-N): 71.1 µM (inactive)
- GI50 (SK-MEL-28): 86.9 µM (inactive)
- GI50 (OVCAR-3): 67.3 µM (inactive)
- GI50 (KM12): 45.1 µM (inactive)
- GI50 (SK-MEL-2): 34.1 µM (inactive)
- GI50 (MCF7): 44.6 µM (inactive)
- GI50 (M14): 54.5 µM (inactive)
- GI50 (NCI/ADR-RES): 35.5 µM (inactive)
- GI50 (U-251): 48.5 µM (inactive)
- GI50 (SK-MEL-5): 37.4 µM (inactive)
- GI50 (HCT-116): 57 µM (inactive)
- GI50 (OVCAR-4): 46.9 µM (inactive)
- GI50 (PC-3): 36.7 µM (inactive)
- GI50 (LOX IMVI): 51.4 µM (inactive)
- GI50 (SF-295): 58.1 µM (inactive)
- GI50 (MOLT-4): 50.4 µM (inactive)
- GI50 (EKVX): 38.9 µM (inactive)
- GI50 (HOP-62): > 100 µM (inactive)
- GI50 (CAKI-1): 38.7 µM (inactive)
- GI50 (ACHN): 56.6 µM (inactive)
- GI50 (OVCAR-5): 78.2 µM (inactive)
- GI50 (K562): 48 µM (inactive)
- GI50 (SN12C): 49.3 µM (inactive)

— ChEMBL document CHEMBL1201862, “PubChem BioAssay data set” (2004)
